The source of these data is ChEMBL document CHEMBL4396923, “Applications of amide isosteres in medicinal chemistry” (Bioorg Med Chem Lett, 2019).

Residues, ends and D or L forms follow the SMILES beside them.

By IC50 is commonly meant the concentration that inhibits the measured activity by half. Low values mean higher potency, high ones lower potency. What is called half-life is how long it takes for the measured level to halve. A word on the EC50: it is the midpoint of the concentration-response curve. As usually defined, the ED50 is the dose at which the effect has come halfway, by size or by number of responders. Low values mean greater potency, high ones weaker potency. The Ki is a measure of affinity in units of concentration, obtained from inhibition or displacement. A high value points to a looser hold on the target.

Data set [1] addresses Beta-secretase 1 (Homo sapiens, UniProt P56817). Description: Inhibition of BACE-1 (unknown origin).
Data set [2] deals with angiotensin-converting enzyme (Homo sapiens, UniProt P12821). The experiment in a line: Drug metabolism assessed as angiotensin converting enzyme (unknown origin)-mediated Gly3-Phe4 cleavage by measuring half life. The data set is classed as ADME.
For data set [3], the target named is Kappa-type opioid receptor (Homo sapiens, UniProt P41145). Description: Agonist activity at kappa opioid receptor (unknown origin) expressed in CHO cells. In kind it is cell-based.
A short description of data set [4]: Stability in human plasma assessed as parent compound remaining at 4 hrs. The data set is classed as ADME, cell-free. Conditions: read-out: Stability.
Data set [5] addresses Mu-type opioid receptor (Homo sapiens, UniProt P35372). The experiment in a line: Agonist activity at mu opioid receptor (unknown origin) expressed in CHO cells. The data set is classed as cell-based.
Data set [6] deals with Delta-type opioid receptor (Homo sapiens, UniProt P41143).
Description: Agonist activity at delta opioid receptor (unknown origin) expressed in CHO cells
A short description of data set [7]: Stability in rat plasma assessed as parent compound remaining at 4 hrs. The data set is classed as ADME, cell-free. To be noted: read-out: Stability.
The target of data set [8] is D(2) dopamine receptor (Homo sapiens) (UniProt P14416). Description: Agonist activity at human D2 receptor expressed in NIH/3T3 cells co-expressing beta-galactosidase assessed as increase in beta-galactosidase activity at 10 uM incubated for 5 days by spectrophotometry relative to control. In kind it is cell-based.
In data set [9] the test system is Hamster. The experiment in a line: Protection against HLE-induced acute lung damage in hamster. To be noted: Cricetinae. In kind it is functional.
Data set [10] in a line: Half life in human serum. The data set is classed as ADME, cell-free.

Delta-type opioid receptor, sequence (P41143 whole entry): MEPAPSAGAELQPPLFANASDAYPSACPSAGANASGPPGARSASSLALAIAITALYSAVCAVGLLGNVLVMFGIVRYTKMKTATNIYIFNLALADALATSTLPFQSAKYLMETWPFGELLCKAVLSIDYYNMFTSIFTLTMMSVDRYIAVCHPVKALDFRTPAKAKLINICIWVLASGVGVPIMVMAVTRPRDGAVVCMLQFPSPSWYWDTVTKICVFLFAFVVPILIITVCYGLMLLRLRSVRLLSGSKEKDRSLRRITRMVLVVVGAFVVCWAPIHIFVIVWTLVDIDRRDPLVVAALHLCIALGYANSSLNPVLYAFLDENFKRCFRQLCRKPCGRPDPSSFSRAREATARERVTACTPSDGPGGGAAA
D(2) dopamine receptor (Homo sapiens), sequence (P14416 whole entry): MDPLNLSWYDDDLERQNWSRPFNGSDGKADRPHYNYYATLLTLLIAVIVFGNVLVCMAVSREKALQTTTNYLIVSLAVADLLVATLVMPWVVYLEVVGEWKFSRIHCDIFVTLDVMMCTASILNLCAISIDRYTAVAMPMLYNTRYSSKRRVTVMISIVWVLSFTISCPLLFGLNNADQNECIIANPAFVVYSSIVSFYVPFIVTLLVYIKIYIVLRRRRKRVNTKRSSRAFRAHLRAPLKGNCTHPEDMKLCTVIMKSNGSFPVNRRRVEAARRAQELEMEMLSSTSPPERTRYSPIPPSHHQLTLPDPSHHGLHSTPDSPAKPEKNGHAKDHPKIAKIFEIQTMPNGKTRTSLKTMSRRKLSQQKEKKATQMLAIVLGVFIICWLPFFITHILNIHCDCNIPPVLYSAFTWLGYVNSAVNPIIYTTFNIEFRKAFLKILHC
Mu-type opioid receptor, sequence (P35372 whole entry): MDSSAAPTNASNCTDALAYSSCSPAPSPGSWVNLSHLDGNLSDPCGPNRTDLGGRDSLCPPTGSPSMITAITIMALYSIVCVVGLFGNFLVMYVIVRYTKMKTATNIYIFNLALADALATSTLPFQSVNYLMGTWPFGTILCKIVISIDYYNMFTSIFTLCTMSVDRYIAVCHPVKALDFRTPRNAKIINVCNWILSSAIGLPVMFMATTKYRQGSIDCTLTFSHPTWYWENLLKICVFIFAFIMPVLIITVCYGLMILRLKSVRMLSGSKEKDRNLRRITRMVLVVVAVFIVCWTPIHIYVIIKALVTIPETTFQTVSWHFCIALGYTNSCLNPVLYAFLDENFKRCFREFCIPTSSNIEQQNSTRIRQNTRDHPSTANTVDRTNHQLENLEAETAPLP
angiotensin-converting enzyme, sequence (P12821 whole entry): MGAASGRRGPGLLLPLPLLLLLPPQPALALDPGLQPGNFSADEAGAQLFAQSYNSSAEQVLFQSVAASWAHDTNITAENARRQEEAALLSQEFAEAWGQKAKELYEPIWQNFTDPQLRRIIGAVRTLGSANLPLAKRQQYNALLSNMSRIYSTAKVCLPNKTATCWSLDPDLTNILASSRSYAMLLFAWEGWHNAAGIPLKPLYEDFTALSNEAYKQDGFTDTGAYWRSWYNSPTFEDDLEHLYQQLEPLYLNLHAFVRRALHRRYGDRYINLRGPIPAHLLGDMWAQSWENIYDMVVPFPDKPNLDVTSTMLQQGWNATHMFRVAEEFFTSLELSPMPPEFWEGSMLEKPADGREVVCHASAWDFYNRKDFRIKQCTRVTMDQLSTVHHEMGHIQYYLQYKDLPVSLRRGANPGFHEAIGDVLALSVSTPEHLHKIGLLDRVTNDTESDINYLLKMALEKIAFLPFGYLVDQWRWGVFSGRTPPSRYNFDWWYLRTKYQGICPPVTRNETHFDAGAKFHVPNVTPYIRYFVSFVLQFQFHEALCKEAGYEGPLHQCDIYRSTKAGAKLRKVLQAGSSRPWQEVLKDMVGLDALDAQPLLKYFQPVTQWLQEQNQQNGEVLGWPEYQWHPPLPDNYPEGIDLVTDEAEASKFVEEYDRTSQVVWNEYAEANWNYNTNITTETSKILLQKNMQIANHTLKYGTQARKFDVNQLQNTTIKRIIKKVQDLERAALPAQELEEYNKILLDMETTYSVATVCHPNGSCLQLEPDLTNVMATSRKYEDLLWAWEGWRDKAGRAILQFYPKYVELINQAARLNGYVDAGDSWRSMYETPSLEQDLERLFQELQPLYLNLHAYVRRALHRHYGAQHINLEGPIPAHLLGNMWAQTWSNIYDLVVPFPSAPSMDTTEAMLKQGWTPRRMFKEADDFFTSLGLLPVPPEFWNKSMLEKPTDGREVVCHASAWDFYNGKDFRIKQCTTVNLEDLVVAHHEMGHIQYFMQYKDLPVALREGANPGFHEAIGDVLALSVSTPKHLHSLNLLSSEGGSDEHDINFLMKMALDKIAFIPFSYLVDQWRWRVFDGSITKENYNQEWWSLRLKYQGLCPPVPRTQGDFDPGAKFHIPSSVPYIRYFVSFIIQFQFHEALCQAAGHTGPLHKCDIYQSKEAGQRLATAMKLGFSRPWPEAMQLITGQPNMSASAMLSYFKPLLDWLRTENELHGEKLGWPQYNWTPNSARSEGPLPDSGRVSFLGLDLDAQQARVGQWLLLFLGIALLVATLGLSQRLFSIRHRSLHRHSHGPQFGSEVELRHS
Kappa-type opioid receptor, sequence (P41145 whole entry): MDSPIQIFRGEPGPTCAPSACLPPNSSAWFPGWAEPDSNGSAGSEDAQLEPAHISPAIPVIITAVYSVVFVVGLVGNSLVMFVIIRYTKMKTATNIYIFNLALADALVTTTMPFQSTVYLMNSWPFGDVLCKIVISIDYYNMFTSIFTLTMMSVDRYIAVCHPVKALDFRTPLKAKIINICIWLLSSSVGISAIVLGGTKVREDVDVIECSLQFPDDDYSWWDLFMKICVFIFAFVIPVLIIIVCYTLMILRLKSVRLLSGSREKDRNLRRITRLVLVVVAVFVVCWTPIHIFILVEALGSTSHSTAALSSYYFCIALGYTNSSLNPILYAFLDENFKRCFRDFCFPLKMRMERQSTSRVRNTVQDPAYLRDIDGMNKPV
Beta-secretase 1, sequence (P56817 whole entry): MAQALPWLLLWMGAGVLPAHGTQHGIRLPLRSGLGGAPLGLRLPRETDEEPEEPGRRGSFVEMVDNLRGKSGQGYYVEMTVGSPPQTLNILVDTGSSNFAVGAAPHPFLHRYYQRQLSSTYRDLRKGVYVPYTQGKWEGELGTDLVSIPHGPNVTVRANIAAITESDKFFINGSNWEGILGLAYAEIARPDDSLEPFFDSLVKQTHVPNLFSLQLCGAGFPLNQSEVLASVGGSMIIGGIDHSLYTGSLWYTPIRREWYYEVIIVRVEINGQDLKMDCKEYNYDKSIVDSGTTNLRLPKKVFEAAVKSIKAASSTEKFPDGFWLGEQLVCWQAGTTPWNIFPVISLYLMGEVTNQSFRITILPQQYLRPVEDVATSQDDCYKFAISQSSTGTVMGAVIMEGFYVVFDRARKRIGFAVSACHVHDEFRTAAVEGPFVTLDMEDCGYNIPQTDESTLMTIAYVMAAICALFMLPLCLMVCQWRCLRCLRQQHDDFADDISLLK

As for `COC(=O)[C@@H]1C[C@H](NC(=O)[C@@H](NC(=O)C[C@H](O)[C@H](Cc2cc(F)cc(F)c2)NC(=O)C(O)c2ccccc2-c2ccccc2)C(C)C)C[C@H](C(=O)OC)C1` (stereo partly drawn), in [1], it took 120 nM to reach half-maximal inhibition (IC50). For `CC(C)C[C@H](NC(=O)[C@H](Cc1ccccc1)NC(=O)CNC(=O)CNC(=O)[C@@H](N)Cc1ccc(O)cc1)C(=O)O` [ENKEPHALIN], the half-life in data set [2] is 2.17 h. For the compound `Cc1ccc(C[C@H](N)/C(F)=C/CC(=O)NCC(=O)N[C@@H](Cc2ccccc2)C(=O)N[C@@H](CC(C)C)C(=O)O)cc1`, the results for the concentration for a half-maximal effect (EC50) in data set [3], in data set [5] and in data set [6] were over 10 nM, 60 nM and 5 nM, respectively. For the same compound, the remaining at 4 h stood at 68% in [4] and 76% in [7]. Consider `CC(C)C[C@H](NC(=O)[C@@H]1CCCN1)C(=O)NCC(N)=O` (H-Pro-Leu-Gly-NH2), for which the Activity in [8] was determined as 146%. With `CC(C)C(NC(=O)Cn1c(-c2ccc(F)cc2)ncc(N)c1=O)C(=O)C(F)(F)F` (stereo not drawn), the ED50 in data set [9] came out at 7.5 mg/kg. The compound `CC(C)C[C@H](NC(=O)[C@@H](/C=C/CNC(=O)CNC(=O)[C@@H](N)Cc1ccc(O)cc1)Cc1ccccc1)C(=O)O` displayed an EC50 in data set [6] of 587 nM.

`CC(C)C[C@H](NC(=O)[C@@H](/C=C(\F)CNC(=O)CNC(=O)[C@@H](N)Cc1ccc(O)cc1)Cc1ccccc1)C(=O)O` gave an EC50 in data set [6] of 43 nM.

In data set [10], `CC(C)C[C@H](NC(=O)[C@H](Cc1ccccc1)NC1(CNC(=O)CNC(=O)[C@@H](N)Cc2ccc(O)cc2)COC1)C(=O)O.O=C(O)C(F)(F)F` displayed a half-life of 0.25 h. Besides, in [6], the Ki was determined as 157 nM. In turn, `CC(C)C[C@H](NC(=O)[C@H](Cc1ccccc1)NC(=O)CNC(=O)CNC1([C@@H](N)Cc2ccc(O)cc2)COC1)C(=O)O.O=C(O)C(F)(F)F` gave a half-life in data set [10] of 3.2 h. In the case of `CC(C)C[C@H](NC1([C@H](Cc2ccccc2)NC(=O)CNC(=O)CNC(=O)[C@@H](N)Cc2ccc(O)cc2)COC1)C(=O)O.O=C(O)C(F)(F)F`, the half-life in [10] turned out to be 0.433 h. In [6], affinity was put at a Ki of 43 nM. For the compound `CC(C)C[C@H](NC(=O)[C@H](Cc1ccccc1)NC(=O)CNC(=O)CNC([C@@H](N)Cc1ccc(O)cc1)C(F)(F)F)C(=O)O` (mixture of isomers), in [6], the EC50 was over 10 nM. For `CC(C)C[C@H](NC(=O)[C@H](Cc1ccccc1)NC(=O)CNC1(CNC(=O)[C@@H](N)Cc2ccc(O)cc2)COC1)C(=O)O.O=C(O)C(F)(F)F`, in data set [10], the half-life is 18 h.
